Among the data in patent US12421232B2, “Kinase inhibitor compounds and compositions and methods of use” (ICAHN SCHOOL OF MEDICINE AT MOUNT SINAI, priority 2018, dated 2025) are remaining binding values, retold here.

Like-named read-outs stand apart in the source and are kept apart here.

Holding throughout (assay): KINOMEscan Assay (DiscoverX)
Common to all, as to type: binding
Holding throughout (conditions): read-out: % DMSO Ctrl

The target of assay [1] is T1, LRRK2(G2019S) (Homo sapiens, UniProt Q5S007, G2019S).
T1 construct: purchased DiscoverX

Assay [2] deals with T2, IRAK3 (Homo sapiens, UniProt Q9Y616).
T2 construct: purchased DiscoverX
T2 sequence (Q9Y616 1-596): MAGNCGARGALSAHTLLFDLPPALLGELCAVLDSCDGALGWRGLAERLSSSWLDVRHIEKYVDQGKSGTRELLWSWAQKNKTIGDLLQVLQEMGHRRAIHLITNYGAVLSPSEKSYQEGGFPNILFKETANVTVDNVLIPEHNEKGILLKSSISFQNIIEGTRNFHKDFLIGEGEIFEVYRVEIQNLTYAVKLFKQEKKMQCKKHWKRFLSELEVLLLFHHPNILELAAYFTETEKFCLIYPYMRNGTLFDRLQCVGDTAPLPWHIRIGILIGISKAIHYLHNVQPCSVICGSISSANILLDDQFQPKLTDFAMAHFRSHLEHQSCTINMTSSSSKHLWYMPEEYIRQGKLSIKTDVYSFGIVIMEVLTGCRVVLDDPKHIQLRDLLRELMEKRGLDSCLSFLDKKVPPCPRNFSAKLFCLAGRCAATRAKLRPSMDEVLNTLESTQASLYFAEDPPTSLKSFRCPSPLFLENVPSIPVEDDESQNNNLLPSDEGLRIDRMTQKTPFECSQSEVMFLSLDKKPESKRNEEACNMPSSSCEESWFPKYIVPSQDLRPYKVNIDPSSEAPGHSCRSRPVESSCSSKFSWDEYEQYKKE

The target in assay [3] is T3, KIT(V559D) (Homo sapiens, UniProt P10721, V559D).
T3 construct: purchased DiscoverX

Assay [4] deals with T4, ADCK4 (Homo sapiens, UniProt Q96D53).
T4 construct: purchased DiscoverX
T4 sequence (Q96D53 1-544): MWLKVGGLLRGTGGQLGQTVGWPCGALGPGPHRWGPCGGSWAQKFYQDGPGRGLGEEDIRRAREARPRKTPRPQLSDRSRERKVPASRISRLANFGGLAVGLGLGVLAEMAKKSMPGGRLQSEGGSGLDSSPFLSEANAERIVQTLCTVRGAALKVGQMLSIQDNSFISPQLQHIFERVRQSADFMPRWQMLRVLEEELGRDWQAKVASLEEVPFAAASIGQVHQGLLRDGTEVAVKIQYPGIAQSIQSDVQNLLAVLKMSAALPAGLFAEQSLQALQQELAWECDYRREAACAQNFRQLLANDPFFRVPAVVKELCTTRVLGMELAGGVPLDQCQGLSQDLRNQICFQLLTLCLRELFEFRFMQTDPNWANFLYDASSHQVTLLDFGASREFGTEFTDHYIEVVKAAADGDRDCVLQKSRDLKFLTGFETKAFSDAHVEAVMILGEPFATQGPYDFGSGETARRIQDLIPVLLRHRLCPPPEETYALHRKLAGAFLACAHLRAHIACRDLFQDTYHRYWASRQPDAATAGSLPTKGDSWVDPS

The target of assay [5] is T5, ROCK1 (Homo sapiens, UniProt Q13464).
T5 construct: purchased DiscoverX

Assay [6] addresses T6, KIT(L576P) (Homo sapiens, UniProt P10721, L576P).
T6 construct: purchased DiscoverX

Assay [7] concerns the target T7, CAMK2A (Homo sapiens, UniProt Q9UQM7).
T7 construct: purchased DiscoverX

Assay [8] deals with T8, PIK3CG (Homo sapiens, UniProt P48736).
T8 construct: purchased DiscoverX

The target of assay [9] is T9, CSNK1A1 (Homo sapiens, UniProt P48729).
T9 construct: purchased DiscoverX

In assay [10] the target is T10, DYRK2 (Homo sapiens, UniProt Q92630).
T10 construct: purchased DiscoverX
T10 sequence (Q92630 1-601): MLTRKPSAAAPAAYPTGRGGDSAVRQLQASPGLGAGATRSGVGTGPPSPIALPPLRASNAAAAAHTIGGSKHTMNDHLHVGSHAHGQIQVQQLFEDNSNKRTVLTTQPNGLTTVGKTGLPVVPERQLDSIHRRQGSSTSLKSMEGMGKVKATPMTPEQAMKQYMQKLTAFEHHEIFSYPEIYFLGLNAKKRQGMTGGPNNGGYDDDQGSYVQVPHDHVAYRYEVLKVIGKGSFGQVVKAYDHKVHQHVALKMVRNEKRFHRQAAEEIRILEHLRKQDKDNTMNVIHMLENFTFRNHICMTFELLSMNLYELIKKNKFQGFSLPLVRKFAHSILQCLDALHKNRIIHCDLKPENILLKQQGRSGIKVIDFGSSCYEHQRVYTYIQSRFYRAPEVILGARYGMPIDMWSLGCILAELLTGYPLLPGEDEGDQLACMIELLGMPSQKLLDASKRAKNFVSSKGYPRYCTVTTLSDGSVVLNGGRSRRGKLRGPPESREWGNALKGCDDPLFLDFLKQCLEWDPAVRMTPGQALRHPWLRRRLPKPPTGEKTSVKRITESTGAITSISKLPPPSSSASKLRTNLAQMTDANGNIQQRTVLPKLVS

The target in assay [11] is T11, PIM2 (Homo sapiens, UniProt Q9P1W9).
T11 construct: purchased DiscoverX
T11 sequence (Q9P1W9 whole entry): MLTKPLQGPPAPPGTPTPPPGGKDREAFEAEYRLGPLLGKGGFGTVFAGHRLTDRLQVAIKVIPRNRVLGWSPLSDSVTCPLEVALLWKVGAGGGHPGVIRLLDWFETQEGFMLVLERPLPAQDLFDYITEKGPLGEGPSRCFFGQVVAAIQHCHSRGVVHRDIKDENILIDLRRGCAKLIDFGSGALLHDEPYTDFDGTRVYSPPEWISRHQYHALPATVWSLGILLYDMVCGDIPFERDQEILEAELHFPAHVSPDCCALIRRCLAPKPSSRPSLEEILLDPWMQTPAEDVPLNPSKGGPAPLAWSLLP

T5 sequence (Q13464 whole entry): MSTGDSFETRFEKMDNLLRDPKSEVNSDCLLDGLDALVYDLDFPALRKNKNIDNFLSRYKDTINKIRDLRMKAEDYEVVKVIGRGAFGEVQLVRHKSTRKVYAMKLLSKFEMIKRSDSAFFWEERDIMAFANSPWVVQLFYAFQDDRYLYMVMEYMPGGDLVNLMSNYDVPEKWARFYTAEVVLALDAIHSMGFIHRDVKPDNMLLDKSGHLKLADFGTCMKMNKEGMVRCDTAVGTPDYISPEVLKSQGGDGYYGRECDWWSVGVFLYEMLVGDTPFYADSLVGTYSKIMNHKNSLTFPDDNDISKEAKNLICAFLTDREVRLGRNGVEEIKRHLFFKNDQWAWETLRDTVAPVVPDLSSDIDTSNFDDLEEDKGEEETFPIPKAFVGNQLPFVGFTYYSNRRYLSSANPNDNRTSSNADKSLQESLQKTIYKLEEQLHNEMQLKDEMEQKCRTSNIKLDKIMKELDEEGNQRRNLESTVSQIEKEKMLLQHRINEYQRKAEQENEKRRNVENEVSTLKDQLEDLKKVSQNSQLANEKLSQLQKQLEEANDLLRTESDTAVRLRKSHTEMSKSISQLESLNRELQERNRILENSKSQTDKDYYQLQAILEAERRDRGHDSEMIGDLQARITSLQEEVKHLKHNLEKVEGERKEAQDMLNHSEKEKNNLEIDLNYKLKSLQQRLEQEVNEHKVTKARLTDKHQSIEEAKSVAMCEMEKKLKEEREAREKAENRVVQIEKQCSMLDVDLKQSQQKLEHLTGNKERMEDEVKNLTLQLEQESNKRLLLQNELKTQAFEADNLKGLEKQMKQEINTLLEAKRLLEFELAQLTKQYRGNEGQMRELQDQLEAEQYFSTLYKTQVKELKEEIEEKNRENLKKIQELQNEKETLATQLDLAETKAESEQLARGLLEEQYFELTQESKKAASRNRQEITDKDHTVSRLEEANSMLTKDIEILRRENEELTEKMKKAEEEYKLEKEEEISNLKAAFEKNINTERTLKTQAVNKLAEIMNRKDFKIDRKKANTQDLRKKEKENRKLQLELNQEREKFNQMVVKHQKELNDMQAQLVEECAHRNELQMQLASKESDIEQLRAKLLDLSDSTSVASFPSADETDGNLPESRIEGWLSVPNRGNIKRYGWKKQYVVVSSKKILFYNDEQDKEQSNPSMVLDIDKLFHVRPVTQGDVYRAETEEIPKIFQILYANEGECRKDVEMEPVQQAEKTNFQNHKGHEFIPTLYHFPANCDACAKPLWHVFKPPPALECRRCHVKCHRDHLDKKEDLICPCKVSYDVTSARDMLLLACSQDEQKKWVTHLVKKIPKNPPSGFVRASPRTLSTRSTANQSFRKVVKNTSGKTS
T9 sequence (P48729 whole entry): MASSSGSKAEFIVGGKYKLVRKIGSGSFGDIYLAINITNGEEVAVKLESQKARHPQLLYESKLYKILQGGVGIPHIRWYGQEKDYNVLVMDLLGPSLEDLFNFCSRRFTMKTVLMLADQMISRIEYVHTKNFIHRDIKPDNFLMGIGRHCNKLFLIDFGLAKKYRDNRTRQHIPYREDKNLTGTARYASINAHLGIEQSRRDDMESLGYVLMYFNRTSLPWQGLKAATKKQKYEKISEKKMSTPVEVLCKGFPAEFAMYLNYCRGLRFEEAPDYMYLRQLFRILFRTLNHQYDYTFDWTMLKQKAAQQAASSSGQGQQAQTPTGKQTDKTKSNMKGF
T8 sequence (P48736 whole entry): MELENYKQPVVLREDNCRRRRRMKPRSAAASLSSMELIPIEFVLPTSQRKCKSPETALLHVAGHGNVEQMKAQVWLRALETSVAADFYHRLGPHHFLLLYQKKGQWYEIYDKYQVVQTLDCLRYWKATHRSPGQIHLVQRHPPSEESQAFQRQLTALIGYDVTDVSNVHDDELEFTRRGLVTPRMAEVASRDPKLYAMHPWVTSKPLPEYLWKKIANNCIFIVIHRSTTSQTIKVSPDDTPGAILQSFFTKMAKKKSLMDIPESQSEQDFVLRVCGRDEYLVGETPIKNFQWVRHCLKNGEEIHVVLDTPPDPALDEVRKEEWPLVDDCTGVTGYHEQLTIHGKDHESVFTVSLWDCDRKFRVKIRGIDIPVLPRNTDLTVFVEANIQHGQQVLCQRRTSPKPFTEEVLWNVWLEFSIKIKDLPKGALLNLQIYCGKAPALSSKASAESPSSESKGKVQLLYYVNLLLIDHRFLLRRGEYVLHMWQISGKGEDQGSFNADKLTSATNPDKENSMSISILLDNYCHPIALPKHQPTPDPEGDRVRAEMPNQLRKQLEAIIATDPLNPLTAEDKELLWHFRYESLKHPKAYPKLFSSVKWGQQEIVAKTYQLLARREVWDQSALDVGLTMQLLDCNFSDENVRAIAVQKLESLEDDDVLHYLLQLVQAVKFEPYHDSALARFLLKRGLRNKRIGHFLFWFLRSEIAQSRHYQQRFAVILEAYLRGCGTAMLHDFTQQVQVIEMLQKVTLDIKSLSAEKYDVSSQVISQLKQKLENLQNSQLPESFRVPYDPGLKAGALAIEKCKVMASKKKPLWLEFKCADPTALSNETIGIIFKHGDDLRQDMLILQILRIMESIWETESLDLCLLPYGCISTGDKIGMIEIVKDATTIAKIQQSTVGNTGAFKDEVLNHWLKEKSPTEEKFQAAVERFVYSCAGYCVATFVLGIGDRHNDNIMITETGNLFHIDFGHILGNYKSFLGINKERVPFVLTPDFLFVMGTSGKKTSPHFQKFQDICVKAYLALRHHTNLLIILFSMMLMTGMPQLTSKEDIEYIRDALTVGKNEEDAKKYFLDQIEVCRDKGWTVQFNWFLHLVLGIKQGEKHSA
T7 sequence (Q9UQM7 whole entry): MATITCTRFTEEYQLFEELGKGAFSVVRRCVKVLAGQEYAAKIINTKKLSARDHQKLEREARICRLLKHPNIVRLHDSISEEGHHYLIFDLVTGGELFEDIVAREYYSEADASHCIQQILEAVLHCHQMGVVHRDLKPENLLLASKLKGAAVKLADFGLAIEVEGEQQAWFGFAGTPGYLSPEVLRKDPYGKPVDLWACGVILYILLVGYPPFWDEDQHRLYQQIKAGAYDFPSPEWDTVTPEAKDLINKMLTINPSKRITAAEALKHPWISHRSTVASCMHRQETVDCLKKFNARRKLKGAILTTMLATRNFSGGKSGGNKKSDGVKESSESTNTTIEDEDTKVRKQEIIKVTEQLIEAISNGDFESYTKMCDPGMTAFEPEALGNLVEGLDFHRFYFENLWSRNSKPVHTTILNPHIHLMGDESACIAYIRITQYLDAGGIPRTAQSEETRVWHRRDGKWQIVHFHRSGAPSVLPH
T3 sequence (P10721 26-976 V559D): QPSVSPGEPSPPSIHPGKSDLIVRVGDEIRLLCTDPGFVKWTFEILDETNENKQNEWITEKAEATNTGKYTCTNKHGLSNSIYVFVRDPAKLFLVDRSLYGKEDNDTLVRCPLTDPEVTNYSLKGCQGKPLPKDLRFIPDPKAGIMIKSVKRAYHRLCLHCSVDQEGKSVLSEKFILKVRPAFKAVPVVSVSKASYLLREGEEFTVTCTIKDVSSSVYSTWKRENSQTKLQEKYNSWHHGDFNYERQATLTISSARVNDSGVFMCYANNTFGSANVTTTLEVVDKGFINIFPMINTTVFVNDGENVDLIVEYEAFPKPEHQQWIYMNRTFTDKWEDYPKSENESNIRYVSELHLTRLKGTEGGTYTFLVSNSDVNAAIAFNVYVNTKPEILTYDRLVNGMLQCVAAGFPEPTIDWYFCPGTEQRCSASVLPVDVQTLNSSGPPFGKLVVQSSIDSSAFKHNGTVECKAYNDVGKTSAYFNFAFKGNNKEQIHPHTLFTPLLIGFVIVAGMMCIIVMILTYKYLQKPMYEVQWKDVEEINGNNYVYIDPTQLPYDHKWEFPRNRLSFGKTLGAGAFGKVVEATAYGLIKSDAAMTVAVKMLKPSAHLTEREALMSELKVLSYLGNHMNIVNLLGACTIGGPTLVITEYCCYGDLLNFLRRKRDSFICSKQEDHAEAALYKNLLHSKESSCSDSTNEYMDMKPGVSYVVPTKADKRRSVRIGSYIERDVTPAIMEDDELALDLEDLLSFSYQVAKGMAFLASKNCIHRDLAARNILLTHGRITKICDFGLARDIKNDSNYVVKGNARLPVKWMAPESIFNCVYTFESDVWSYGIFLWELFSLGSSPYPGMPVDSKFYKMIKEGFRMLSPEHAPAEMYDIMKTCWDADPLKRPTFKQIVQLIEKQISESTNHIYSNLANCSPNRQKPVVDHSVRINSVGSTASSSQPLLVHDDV
T6 sequence (P10721 26-976 L576P): as the sequence (P10721 26-976 V559D) above, with D534V, L551P counted along it

Regarding `COc1ccc2c(c1)[nH]c1c(C)nc(CO)cc12` [Compound 2-8, (1-Methyl-7-methoxy-9H-pyrido[3,4-b]indol-3-yl)methanol], the remaining binding at 10 µM in assay [1] (LRRK2(G2019S) mutant, 10 μM) turned out to be 98%; in [2] (IRAK3, 10 μM), 70%; in assay [3] (KIT(V559D) mutant, 10 μM) it was 82%; in [4] (ADCK4, 10 μM), 84%; in assay [5] (ROCK1, 10 μM), 33%; in assay [6] (KIT(L576P) mutant, 10 μM), 94%. For the same molecule, the remaining binding at 10 µM in assay [7] (CAMK2A, 10 μM) is 53%; in assay [8] (PIK3CG, 10 μM) it was 67%.

For `COc1ccc2c3ccnc(C)c3n(CCCc3noc(N)n3)c2c1` [Compound 20-13, 3-(3-(7-Methoxy-1-methyl-β-carbolin-9-yl)propyl)-5-amino-1,2,4-oxadiazole], the remaining binding at 10 µM in assay [1] was determined as 5.1%; in assay [9], 33%; in assay [2] it was 62%; in assay [10], 9.1%; in assay [3], 100%; in assay [4], 100%. In addition, the remaining binding at 10 µM in [5] turned out to be 24%; in assay [6], 100%; in [11], 38%; in assay [7], 72%; in assay [8], 3.3%.

Consider `C#CCn1c2cc(OC)ccc2c2ccnc(C)c21` [Compound 20-23a, 3-(7-Methoxy-1-methyl-β-carbolin-9-yl)-propan-1-yne], for which the remaining binding at 10 µM in assay [1] was 100%; in assay [9] (CSNK1A1, 10 μM) it was 13%; in assay [2] (IRAK3, 10 μM), 34%; in [10], 5.2%; in assay [3], 90%; in assay [4], 9.3%. Further, the remaining binding at 10 µM in assay [5] (ROCK1, 10 μM) came to 9.2%; in assay [6] it was 74%; in assay [11] (PIM2, 10 μM) it was 19%; in assay [7], 13%; in assay [8], 42%.

`COc1ccc2c(c1)[nH]c1c(C)nccc12` [Harmine, reference compound]: the remaining binding at 10 µM in [9] was determined as 5%; in assay [2], 35%; in assay [10] it was 3.2%; in assay [5], 26%; in assay [11] it was 39%.
